# According to patent US8877261B2, “Anti-redness active agent and cosmetic compositions comprising same” (Laboratoires Expanscience, priority 2011, dated 2014):
# Marks after values point to notes of the source that are not given here.
# How the values were obtained:
# interleukin-8 (IL8) = assay: Release of IL8 by keratinocytes induced by PMA (ELISA); type: cell-based, human; settings: dexamethasone 10^−7 M, ARG 0.2% + LUP 0.02%
# Experimental: Human keratinocytes (NCTC 2544 cell line) were preincubated for 24 hours with the arabinogalactan (ARG)/lupin peptides (LUP) active agents at concentrations of 0.2%/0.02% or with the reference molecule, dexamethasone.
# Inflammation was then induced by treatment with PMA for 24 hours, always in the presence of the active agents or the reference molecule.
# At the end of incubation, the quantities of interleukin-8 (IL8) present in the culture supernatants were measured by ELISA.
# The significance of the results was verified by a single-factor analysis of variance followed by a Tukey's test.
# The percentage of inhibition is calculated according to the following formula: [(stimulated PMA)−(active treatment)/(stimulated PMA)]*100 Results (Table 10)
# MMP9 = assay: Gene expression of MMP9 in keratinocytes induced by PMA (real-time PCR); type: cell-based, human; settings: NHEK, total 40 hours
# Experimental: The effect of the active agents was sought in a basal condition (to study MMP2) or in a preventive manner on a cell layer having been subjected to inflammatory stress induced by PMA (for MMP9).
# Normal human epidermal keratinocytes (NHEK) were preincubated for 24 hours in the presence of the arabinogalactan (ARG)/lupin peptides (LUP) active agents at concentrations of 0.2%/0.02%. PMA was then added for a total treatment period of 40 hours.
# (§1) At the end of the treatment, the culture supernatants were removed and total RNA was extracted, analyzed and assayed. The neo-synthesized cDNA relating to the genes of interest (MMP2, MMP9) or to the reference genes were amplified selectively by iQ5 real-time PCR (Biorad) using SybrGreen technology.
# (§2) By calculating ΔCt (Ctgene of interest−Ctreference gene) and ΔΔCt (ΔCtcontrol−ΔCttreated) the relative quantity of the gene of interest was measured: RQ=(1+E)^ΔΔCt; when E (effectiveness) is equal to 1, then RQ=2^ΔΔCt.
# The significance of the results was verified for the ΔCt values by a single-factor analysis of variance followed by a Dunnett's test (for MMP2) or a Tukey's test (for MMP9).
# The percentage of inhibition is thus calculated for MMP9: [(RQ(PMA stimulated)−RQ(active treatment))/RQ(PMA stimulated)]*100 Results
# cathelicidin (LL37) = assay: Gene expression of cathelicidin (LL37) induced by calcitriol in keratinocytes (real-time PCR); type: cell-based, human; settings: for Mean ΔCt (CtLL37 − CtGAPDH) / LL37 expression (relative quantity) / ΔΔCt (LL37) / Percentage of inhibition (LL37 expression): NHEK, 24 hours, ARG 0.2%, LUP 0.02%; for Mean ΔCt (CtLL37 − CtGAPDH) / LL37 expression (relative quantity) / ΔΔCt (LL37): with calcitriol; for Mean ΔCt (CtLL37 − CtGAPDH): alone or in combination; for LL37 expression (relative quantity): control cells = 1.00; for ΔΔCt (LL37): ΔCtcontrol−ΔCttreated; for Percentage of inhibition (LL37 expression): versus calcitriol stimulated control
# Experimental: (§3) Normal human epidermal keratinocytes (NHEK) were cultured in differentiation culture medium supplemented with Ca^++. […] At the end of the treatment, the culture supernatants were removed and total RNA was extracted, analyzed and assayed. The neo-synthesized cDNA relating to the genes of interest (LL37 and KLK5) or to the reference genes were amplified selectively by iQ5 real-time PCR (Biorad) using SybrGreen technology. […] By calculating ΔCt (Ctgene of interest−Ctreference gene) and ΔΔCt (ΔCtcontrol−ΔCttreated) the relative quantity of the gene of interest was measured: […] The significance of the results was verified for the ΔCt values by a single-factor analysis of variance followed by a Tukey's test. The percentage of inhibition of the expression of LL37 and KLK5 is thus calculated: [(RQ(stim calcitriol)−RQ(active treatment))/RQ(stim calcitriol)]*100 Results
# kallikrein-5 (KLK5) = assay: Gene expression of kallikrein-5 (KLK5) induced by calcitriol in keratinocytes (real-time PCR); type: cell-based, human
# Experimental: as §3
# [1] = system: Normal human dermal microvascular endothelial cells; assay: Proliferation of endothelial cells in the presence of VEGF (PNPP viability); type: cell-based; settings: for T24 h - %/control (without VEGF) T0 / Percentage of inhibition 24 h (proliferation induced by VEGF): 24 hours; for T24 h - %/control (without VEGF) T0 / T48 h - %/control (without VEGF) T0: in the presence of VEGF, PNPP signal, mean±standard deviation; for T24 h - %/control (without VEGF) T0 / T48 h - %/control (without VEGF) T0 / Percentage of inhibition 24 h (proliferation induced by VEGF) / Percentage of inhibition 48 h (proliferation induced by VEGF): ARG 0.2%, LUP 0.02%; for T48 h - %/control (without VEGF) T0 / Percentage of inhibition 48 h (proliferation induced by VEGF): 48 hours; for stimulation of the growth of endothelial cells in relation to control cells: VEGF, p<0.01; for Percentage of inhibition 24 h (proliferation induced by VEGF) / Percentage of inhibition 48 h (proliferation induced by VEGF): alone or in combination
# Experimental: Normal human dermal microvascular endothelial cells were incubated for 24 or 48 hours in the absence (control) or in the presence of the arabinogalactan (ARG)/lupin peptides (LUP) active agents at concentrations of 0.2%/0.02% alone or in combination and in the presence of vascular endothelial growth factor (VEGF), the reference activator. At the end of incubation, the viability of the cells was evaluated by a spectrophotometric method: P-nitrophenyl phosphate (PNPP) is transformed into p-nitrophenol by phosphatases of viable cells and the absorbance at 405 nm of p-nitrophenol is directly proportional to the number of viable cells.
# The results are expressed as the percentage of the “PNPP” signal of the control without VEGF at TO (mean±standard deviation).
# The statistical significance of the differences between the “VEGF stimulated cells” and “VEGF+active agents” conditions was evaluated by a single-factor analysis of variance followed by a Holm-Sidak test.
# The percentage of inhibition of proliferation is calculated according to the following equation: [(active treatment)−(VEGF stimulated)/(control without VEGF)−(VEGF stim)]*100 Results
# VEGF = assay: Gene expression of VEGF by keratinocytes (real-time PCR); type: cell-based, human; settings: NHEK; for Percentage of inhibition (VEGF expression): versus control cells
# Experimental: Normal human epidermal keratinocytes (NHEK) were incubated in the presence of the complex of arabinogalactan (ARG)/lupin peptides (LUP) active agents at concentrations of 0.2%/0.02% alone or in combination.
# as §1, with “(VEGF, FGF2, HIF1α, THBS1)” for “(MMP2, MMP9)”
# as §2
# The significance of the results was verified for the ΔCt values by a single-factor analysis of variance followed by a Dunnett's test.
# The percentage of inhibition is calculated for VEGF, FGF2 and HIF1α: [(RQ(control)−RQ(active treatment))/RQ (control)]*100
# [2] = NCTC 2544 keratinocytes, 24 hours preincubation then PMA 24 hours, culture supernatants
# [3] = calcitriol versus control cells, p<0.001
molecule,measurement,setting,value
"C[C@@H]1C[C@H]2[C@@H]3CCC4=CC(=O)C=C[C@]4(C)[C@@]3(F)[C@@H](O)C[C@]2(C)[C@@]1(O)C(=O)CO [Dexamethasone, dexamethasone]",inhibition at 0.1 µM,"interleukin-8 (IL8); Homo sapiens, NCTC-2544, versus PMA stimulated control, NCTC 2544, read-out: percentage of inhibition of IL8 release induced by PMA",81%
same,IL8,interleukin-8 (IL8); [2],5.967 ± 0.203 ng/mL
same,percentage of inhibition of IL8 release induced by PMA,"interleukin-8 (IL8); versus PMA stimulated control, NCTC 2544",80.5%
CCCCCCCCCCCCCC(=O)O[C@@H]1[C@@H](C)[C@@]2(O)[C@@H](C=C(CO)C[C@]3(O)C(=O)C(C)=C[C@@H]23)[C@@H]2C(C)(C)[C@]12OC(C)=O [PMA],IL8 (ng/ml),interleukin-8 (IL8); [2],30.60 ± 1.888 $$$ ng/ml
same,ΔΔCt (MMP9),MMP9; PMA stimulated,6.55
same,MMP9 expression (relative quantity),"MMP9; PMA stimulated, control cells = 1",93.70 $$$
same,Mean ΔCt (CtMMP9 − CtGAPDH),"MMP9; preincubated 24 hours, then PMA, ARG 0.2% + LUP 0.02%",2.32
C=C1/C(=C\C=C2/CCC[C@]3(C)[C@@H]([C@H](C)CCCC(C)(C)O)CC[C@@H]23)C[C@@H](O)C[C@@H]1O [calcitriol],Mean ΔCt (CtLL37 − CtGAPDH),cathelicidin (LL37),11.02
same,LL37 expression (relative quantity),cathelicidin (LL37),9.12 $$$
same,ΔΔCt (LL37),cathelicidin (LL37),3.19
same,stimulation of the gene expression of LL37 by keratinocytes,cathelicidin (LL37); [3],812%
same,Mean ΔCt (CtKLK5 − CtGAPDH),"kallikrein-5 (KLK5); NHEK, 24 hours, with calcitriol, ARG 0.2% + LUP 0.02%",2.46
same,KLK5 expression (relative quantity),"kallikrein-5 (KLK5); NHEK, 24 hours, with calcitriol, control cells = 1.00",2.49 $$$
same,ΔΔCt (KLK5),"kallikrein-5 (KLK5); NHEK, 24 hours, with calcitriol, ΔCtcontrol−ΔCttreated",1.32
same,stimulation of the gene expression of kallikrein-5 by keratinocytes,kallikrein-5 (KLK5); [3],149%
VEGF,T24 h - %/control (without VEGF) T0,[1],213.2 ± 10.8%
same,T48 h - %/control (without VEGF) T0,[1],262.6 ± 5^ %
same,stimulation of the growth of endothelial cells in relation to control cells,[1]; after 24 hours of incubation,78.9%
same,stimulation of the growth of endothelial cells in relation to control cells,[1]; after 48 hours of incubation,159%
arabinogalactan [ARG],Mean ΔCt (CtVEGF − CtGAPDH),"VEGF; ARG 0.2%, LUP 0.02%, alone or in combination",9.03
same,VEGF expression (relative quantity),VEGF; control cells = 1,0.707 **
same,ΔΔCt (VEGF),VEGF; ΔCtcontrol−ΔCttreated,−0.5
same,Percentage of inhibition (VEGF expression),"VEGF; ARG 0.2%, LUP 0.02%",29.3%
same,Percentage of inhibition (VEGF expression),"VEGF; ARG 0.2%, LUP 0.02%, listed as Arabinogalactan",29%
same,Mean ΔCt (CtLL37 − CtGAPDH),cathelicidin (LL37),11.31
same,LL37 expression (relative quantity),cathelicidin (LL37),7.46 *
same,ΔΔCt (LL37),cathelicidin (LL37),2.9
same,Percentage of inhibition (LL37 expression),cathelicidin (LL37),18.2%
same,Percentage of inhibition (LL37 expression),cathelicidin (LL37); listed as Arabinogalactan,18%
same,T24 h - %/control (without VEGF) T0,[1],204.7 ± 7.1%
same,Percentage of inhibition 24 h (proliferation induced by VEGF),[1],17.03%
same,Percentage of inhibition 24 h (proliferation induced by VEGF),[1]; listed as arabinogalactan,17%
same,T48 h - %/control (without VEGF) T0,[1],252.9 ± 6^ %
same,Percentage of inhibition 48 h (proliferation induced by VEGF),[1],9.71%
same,Percentage of inhibition 48 h (proliferation induced by VEGF),[1]; listed as arabinogalactan,~10%
